Here are results for two compounds from patent US20260091147A1, “METHOD FOR DETECTING INNATE IMMUNE ACTION IN VIVO USING GPR84-PET” (The Board of Trustees of the Leland Standford Junior …, priority 2023, published 2026).

The conditions of series [1]: healthy rhesus macaque, n=1. The method, then: The animal was anesthetized in the home cage with Telazol and transported to the PET facility, where the subject was intubated for mechanical ventilation; anesthesia was continued with isoflurane and maintained throughout the duration of the PET scan. A venous catheter was inserted into one hind limb and the monkey was placed on the PET gantry with its head secured to prevent motion artifacts. […] Emission data were collected beginning with the injection and continued for 60 minutes. Vitals (HR, SPO2, EtCO2 and respiratory rate) were collected for the entire duration of the scan. Data were corrected for attenuation and scatter and reconstructed using the three-dimensional-maximum a priori method (3D MAP algorithm). A ROI was defined for the whole brain on multiple planes by using a summed image. The volumetric ROI was then applied to a full dynamic data set to generate a TAC.

In series [2] the test system is human monocyte-derived macrophages (hMDMs). Description: hMDM radioactive cell binding assay, with or without LPS. The format is cell-based. The conditions noted are these: LPS 100 ng/mL; for tracer signal in LPS-challenged hMDMs after co-incubation with GLPG1205: GLPG1205 block. The method, then:
CD14^+ monocytes isolated from PBMCs from human peripheral blood were plated 10×10^6 cells per 10 cm petri dish in 8-10 mL complete growth medium (for quantitative PCR) or 10^6-10^5 cells per well in 1 mL complete growth medium into one 12-well plate per blood donor (radioactive cell binding) and incubated 7-10 days at 5% CO2 in air at 37° C. These cells were then treated with 100 ng/mL LPS in complete growth medium 24 hr or 72 hr prior to experimentation according to previous working concentrations in the literature.
Human monocyte-derived macrophages (hMDMs) were plated at a concentration of 10^6-10^5 cells per well in media (RPMI 1640+glutamax with 10% FBS, 1% anti-anti, and 50 ng/mL M-CSF) into one 12-well plate per blood donor. Once cells adhered to the plate (˜24 hr), 100 ng/mL lipopolysaccharides (LPS) was applied to two of the three rows of the plate. 24 hr later, the [^11C]GLPG38, [^11C]MGX-10S, or [^18F]MGX-110S radiotracer was prepared. The radiotracer was diluted in RPMI 1640 without FBS or antibiotic to yield a 30 mL solution such that the amount of activity was 50 μCi/mL for ^11C or 2 μCi/mL for ^18F. Additionally, a blocking solution was prepared consisting of 35 μM GLPG1205 dissolved in DMSO and added to RPMI 1640 media+tracer solution. The 12-well plates were incubated for 30 min at […] and 5% CO2 in air. Following incubation, the radioactive media was removed and replaced with 500 μL fresh media, and a 10 min efflux was conducted. After efflux, the media was collected into a gamma counting tube to measure supernatant, and the cells were washed with PBS, trypsinized, resuspended in RPMI 1640+glutamax+10% FBS, then pipetted into gamma counting tubes at 500 μL volume.
Radioactivity levels bound to cells were measured in a gamma counter (Hidex Oy, Helsinki, Finland), and cell counts were recorded using Trypan blue and an automatic cell counter to normalize radioactivity levels to cell count.

In series [3] the target is T1, GPR84 (Mus musculus, UniProt Q8CIM5).
T1 construct: tissue Jackson Laboratories; host or cells: female C57BL/6J mice (LPS, saline, EAE or naive): brain, spinal cord and peripheral organs
T1 sequence (Q8CIM5 whole entry): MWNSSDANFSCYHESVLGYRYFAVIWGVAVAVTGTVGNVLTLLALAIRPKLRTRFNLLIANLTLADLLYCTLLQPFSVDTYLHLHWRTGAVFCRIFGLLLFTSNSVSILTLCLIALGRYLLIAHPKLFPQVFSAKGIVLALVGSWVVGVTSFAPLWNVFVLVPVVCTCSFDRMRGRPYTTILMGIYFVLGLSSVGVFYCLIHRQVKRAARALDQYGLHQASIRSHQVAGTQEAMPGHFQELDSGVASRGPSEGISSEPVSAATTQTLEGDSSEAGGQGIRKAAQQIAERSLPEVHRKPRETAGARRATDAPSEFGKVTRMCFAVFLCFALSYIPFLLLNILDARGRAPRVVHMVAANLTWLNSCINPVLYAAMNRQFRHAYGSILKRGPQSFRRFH
The series can be described thus: Ex vivo gamma counting of CNS tissues in EAE vs naive mice. The method, then:
After the PET/CT scan the mice were perfused under 3% isoflurane and organs of interest were dissected out, weighed, and placed on a Hidex gamma counter to quantify the percent of injected dose per gram of tissue. After gamma counting, CNS tissues were frozen and sectioned on a cryotome at 40 μm and placed on a phosphor storage screen overnight. The images were read using a Typhoon imager 18 h after the screen was exposed to the tissues. Additional mice were also injected off of the PET/CT scanner and perfused at 60-min post-injection to increase the N for the ex vivo gamma counting and autoradiography data.
Radiosynthesis of ^18F-MGX-110S was achieved by copper-mediated fluorination of a Bpin precursor in a mixture of dimethylacetamide at 130° C. for 20 min. C57BL/6 mice were induced with EAE using myelin oligodendrite glycoprotein (MOG35-55) emulsified in complete Freund's adjuvant and weighed/scored daily for disease severity. Expression of Gpr84 and Tspo was assessed in EAE (n=10-16 mice of low and high disease severities) versus naïve mice (n=5) using quantitative polymerase chain reaction (qPCR) of CNS tissues. In vivo kinetics, spatial distribution, and BBB permeability of ^18F-MGX-110S was assessed via 60-min dynamic PET/CT imaging of naïve C57BL/6 (n=3) and high scoring EAE mice (n=3). […]

Series [4] concerns the target T1, GPR84. The series can be described thus: Dynamic PET/CT in EAE vs naive mice, spinal cord time activity curves. The format is in vivo. The method, then: 10-week old female C57BL/6 mice were induced with EAE using kits from Hooke Laboratories Inc. (cat #EK2110; Lawrence, MA). After anesthetizing mice with isoflurane gas (2.0-3.0% for induction and 1.5-2.5% for maintenance), they were inoculated with myelin oligodendrocyte glycoprotein (MOG35-55) in complete Freund's adjuvant (CFA) (0.2 mL per mouse, S.C.), followed by two pertussis toxin (PTX) injections (110 ng per injection, I.P., 1 and 24 h post-MOG injection). All mice were weighed and scored daily in the morning from day 8 onwards according to standard EAE scoring systems: 0, no paralysis; 1, loss of tail tone; 2, hind limb weakness or paresis; 3, hind limb paralysis; 4, complete hind leg and partial front leg paralysis. EAE mice were given supplemental food and fluids as necessary.
On days 15-16 after EAE induction, mice were catheterized and placed on the 4-mouse scanning bed of the Sofie GNEXT PET/CT scanner. Mice were injected with a radiotracer bolus of 130-170 μCi of ^18F-MGX-110S for a 60-min dynamic PET scan followed by CT. Scans were reconstructed from list mode into 19 frames (4×15 s, 4×60 s, 11×300 s) using OSEM3D reconstruction with 3 iterations and 24 subsets. Brain analysis was performed using a semi-automated brain atlas on VivoQuant software (2020 version) and spinal cords were manually drawn as previously described (JoVE).
Radiosynthesis of ^18F-MGX-110S was achieved by copper-mediated fluorination of a Bpin precursor in a mixture of dimethylacetamide at 130° C. for 20 min. C57BL/6 mice were induced with EAE using myelin oligodendrite glycoprotein (MOG35-55) emulsified in complete Freund's adjuvant and weighed/scored daily for disease severity. Expression of Gpr84 and Tspo was assessed in EAE (n=10-16 mice of low and high disease severities) versus naïve mice (n=5) using quantitative polymerase chain reaction (qPCR) of CNS tissues. In vivo kinetics, spatial distribution, and BBB permeability of ^18F-MGX-110S was assessed via 60-min dynamic PET/CT imaging of naïve C57BL/6 (n=3) and high scoring EAE mice (n=3). Ex vivo gamma counting of tissues of interest was conducted using naïve (n=8) and EAE (n=8) mice 60-min post-tracer injection. Lastly, EAE (n=3) and naïve (n=4) mice were injected with ^18F-GE180 and dissected 60 min later for gamma counting as a comparison.

Consider `Cc1cc2c(cc1O[11CH3])CCn1c-2c(C)c(OC[C@@H]2COCCO2)cc1=O` [[^11C]GLPG38], for which, in series [1], the “peak whole-brain uptake at 4 minutes post injection” value is given as 3.3 SUV and the “whole-brain level after washout over 60 min” value was determined as 1.47 SUV. Besides, in series [2], the “tracer binding in LPS-challenged hMDMs compared to unstimulated cells” value was “significantly higher binding” and the “tracer signal in LPS-challenged hMDMs after co-incubation with GLPG1205” value is listed as “reduced to baseline”.

Take `O=c1nc(OC[C@@H]2COCCO2)cc2n1CCc1cc([18F])ccc1-2` [^18F-MGX-110S]: the “signal-to-background ratio (EAE-to-naive) in lumbar spinal cord relative to 18F-GE180” value at GPR84 [3] (60 min post injection) stood at 2.5 fold. At GPR84 [3] (both p<0.01), the “tracer binding in cervical/thoracic and lumbar spinal cord, EAE vs naive” value is “significantly elevated tracer binding”. Also, on GPR84 [4] (high scoring EAE, n=3), the “cervical/thoracic spinal cord signal at 60 min, EAE mice” value worked out at 4.54±1.16 % ID/g. For the same compound, the “lumbar spinal cord signal at 60 min, EAE mice” value at GPR84 [4] (high scoring EAE, n=3, p=0.0206) is reported as 7.08±1.05 % ID/g. For the same compound, on GPR84 [4] (n=3), the “cervical/thoracic spinal cord signal at 60 min, naive mice” value came out at 3.21±0.42 % ID/g and the “lumbar spinal cord signal at 60 min, naive mice” value is listed as 4.13±0.79 % ID/g. In addition, in series [2], the “tracer binding in LPS-challenged hMDMs compared to unstimulated cells” value is listed as “significantly higher binding” and the “tracer signal in LPS-challenged hMDMs after co-incubation with GLPG1205” value is listed as “reduced to baseline”.
